The source of these data is US8735406B2, “8-oxodihydropurine derivative” (Dainippon Sumitomo Pharma Co., Ltd., priority 2009, dated 2014).

This assay deals with T1, FAAH (Rattus norvegicus, UniProt P97612).
T1 construct: Preparation of Rat Brain Membranes Preparations (FAAH Enzyme Solution); from tissue; host or cells: rat cerebrum (brain membrane preparation)
T1 sequence (P97612 1-579): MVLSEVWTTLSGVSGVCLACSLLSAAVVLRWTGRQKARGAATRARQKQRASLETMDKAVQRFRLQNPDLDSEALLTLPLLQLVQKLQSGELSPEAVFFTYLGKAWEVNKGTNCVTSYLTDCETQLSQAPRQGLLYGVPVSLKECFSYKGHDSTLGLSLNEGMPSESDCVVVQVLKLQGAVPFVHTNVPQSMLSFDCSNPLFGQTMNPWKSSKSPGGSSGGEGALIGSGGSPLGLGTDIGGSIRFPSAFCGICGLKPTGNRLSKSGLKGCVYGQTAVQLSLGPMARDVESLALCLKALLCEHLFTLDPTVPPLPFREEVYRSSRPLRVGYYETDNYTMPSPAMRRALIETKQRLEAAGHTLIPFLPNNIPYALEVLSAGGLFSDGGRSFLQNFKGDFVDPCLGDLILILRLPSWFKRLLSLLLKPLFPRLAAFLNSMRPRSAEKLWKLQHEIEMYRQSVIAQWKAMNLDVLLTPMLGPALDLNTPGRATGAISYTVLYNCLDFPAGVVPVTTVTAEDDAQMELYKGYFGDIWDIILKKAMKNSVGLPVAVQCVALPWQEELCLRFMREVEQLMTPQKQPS
The assay can be described thus: Determination of FAAH inhibitory activity in rat (rat brain membrane preparations, [3H]-anandamide hydrolysis). The class given is biochemical. The note with it: rat brain membrane preparations; for inhibition at 0.1 µM: 100 nM test substance, read-out: FAAH Inhibition, Inhibition Rate at 100 nM; for IC50: test substance 0.1 nM to 1 μM, read-out: FAAH Inhibition IC50. In a few lines: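 Rat cerebrum membranes (100 μg/mL protein) preincubated 10 min at 37 °C with compound (1% DMSO) in pH 7.6 Tris buffer with 1.5% BSA. Substrate 2 nM [3H]-anandamide plus 2 μM anandamide added for 10 min at 37 °C. [3H]-ethanolamine in the aqueous phase after chloroform/methanol extraction was scintillation counted; IC50 over 0.1 nM–1 μM.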

A word on the inhibition: it is the change of the read-out against control, counted positive when it falls. The term IC50 denotes the midpoint of a concentration-inhibition curve. For `Cn1c(=O)n(C(=O)N2CCCC2)c2cnc(Cc3cc(F)cc(F)c3)nc21` [Example 270, 2-(3,5-Difluorobenzyl)-9-methyl-7-(pyrrolidin-1-ylcarbonyl)-7,9-dihydro-8H-purine-8-one], the inhibition at 0.1 µM turned out to be 96% and the half-maximal inhibitory concentration (IC50) was determined as 32 nM.
`CC(c1ccccc1)c1ncc2c(n1)n(C)c(=O)n2C(=O)N1CCCC1` (stereo not shown) [Example 273]: the inhibition at 0.1 µM is 89% and the IC50 is 47 nM.
As for `CCCCc1ncc2c(n1)n(C)c(=O)n2C(=O)N1CCCC1` [Example 274, 2-Butyl-9-methyl-7-(pyrrolidin-1-ylcarbonyl)-7,9-dihydro-8H-purine-8-one], the inhibition at 0.1 µM was found to be 98% and the IC50 stood at 10 nM.
With `CC(C)c1ncc2c(n1)n(C)c(=O)n2C(=O)N1CCCC1` [Example 275], the inhibition at 0.1 µM stood at 73% and the IC50 came out at 64 nM.
As to `CCOC(=O)CCc1ncc2c(n1)n(C)c(=O)n2C(=O)N1CCCC1` [Example 276], the inhibition at 0.1 µM was determined as 63% and the IC50 came out at 75 nM.
Consider `CCN(C)C(=O)n1c(=O)n(C)c2nc(Cc3cccc(OC)c3)ncc21` [Example 277, N-Ethyl-2-(3-methoxybenzyl)-N,9-dimethyl-8-oxo-8,9-dihydro-7H-purine-7-carboxamide], for which the inhibition at 0.1 µM worked out at 96% and the IC50 was found to be 7 nM.
For `CCN(C)C(=O)n1c(=O)n(C)c2nc(Cc3ccccc3)ncc21` [Example 278, 2-Benzyl-N-ethyl-N,9-dimethyl-8-oxo-8,9-dihydro-7H-purine-7-carboxamide] the same measures were 99% and 8 nM.
With `CCN(C)C(=O)n1c(=O)n(C)c2nc(Cc3ccc(F)cc3)ncc21` [Example 279, N-Ethyl-2-(4-fluorobenzyl)-N,9-dimethyl-8-oxo-8,9-dihydro-7H-purine-7-carboxamide], the inhibition at 0.1 µM amounted to 98% and the concentration for half-maximal inhibition (IC50) came out at 3 nM.
Regarding `CCN(C)C(=O)n1c(=O)n(C)c2nc(Cc3ccc(OC)cc3)ncc21` [Example 280, N-Ethyl-2-(4-methoxybenzyl)-N,9-dimethyl-8-oxo-8,9-dihydro-7H-purine-7-carboxamide], the inhibition at 0.1 µM came to 105% and the IC50 is 11 nM.
For `CCN(C)C(=O)n1c(=O)n(C)c2nc(Cc3ccc(C)cc3)ncc21` [Example 281, N-Ethyl-N,9-dimethyl-2-(4-methylbenzyl)-8-oxo-8,9-dihydro-7H-purine-7-carboxamide], the inhibition at 0.1 µM stood at 98% and the IC50 was determined as 14 nM.
Turning to `CCN(C)C(=O)n1c(=O)n(C)c2nc(Cc3cccc(C)c3)ncc21` [Example 282, N-Ethyl-N,9-dimethyl-2-(3-methylbenzyl)-8-oxo-8,9-dihydro-7H-purine-7-carboxamide], the inhibition at 0.1 µM turned out to be 97% and the IC50 was 10 nM.
For `CCN(C)C(=O)n1c(=O)n(C)c2nc(Cc3cccc(F)c3)ncc21` [Example 284, N-Ethyl-2-(3-fluorobenzyl)-N,9-dimethyl-8-oxo-8,9-dihydro-7H-purine-7-carboxamide] the same measures were 100% and 3 nM.
As to `Cn1c(=O)n(C(=O)N2CCCC2)c2nc(Cc3cccc(F)c3)ncc21` [Example 286, 2-(3-Fluorobenzyl)-7-methyl-9-(pyrrolidin-1-ylcarbonyl)-7,9-dihydro-8H-purine-8-one], the inhibition at 0.1 µM came to 86% and the IC50 came out at 59 nM.
For `COc1ccc(Cc2ncc3c(n2)n(C(=O)N2CCCC2)c(=O)n3C)cc1` [Example 287, 2-(4-Methoxybenzyl)-7-methyl-9-(pyrrolidin-1-ylcarbonyl)-7,9-dihydro-8H-purine-8-one] the same measures were 96% and 29 nM.
In the case of `COc1cccc(Cc2ncc3c(n2)n(C(=O)N2CCCC2)c(=O)n3C)c1` [Example 288, 2-(3-Methoxybenzyl)-7-methyl-9-(pyrrolidin-1-ylcarbonyl)-7,9-dihydro-8H-purine-8-one], the inhibition at 0.1 µM amounted to 86% and the IC50 turned out to be 47 nM.
For `Cc1ccc(Cc2ncc3c(n2)n(C(=O)N2CCCC2)c(=O)n3C)cc1` [Example 289, 7-Methyl-2-(4-methylbenzyl)-9-(pyrrolidin-1-ylcarbonyl)-7,9-dihydro-8H-purine-8-one] the same measures were 96% and 15 nM.
Take `Cn1c(=O)n(C(=O)N2CCCC2)c2nc(CCc3ccccc3)ncc21` [Example 290, 7-Methyl-2-(2-phenylethyl)-9-(pyrrolidin-1-ylcarbonyl)-7,9-dihydro-8H-purine-8-one]: the inhibition at 0.1 µM came out at 93% and the IC50 was 47 nM.
`Cn1c(=O)n(C(=O)N2CCCC2)c2nc(Cc3ccc(F)c(F)c3)ncc21` [Example 293, 2-(3,4-Difluorobenzyl)-7-methyl-9-(pyrrolidin-1-ylcarbonyl)-7,9-dihydro-8H-purine-8-one]: the inhibition at 0.1 µM is 97% and the IC50 was 24 nM.
Take `Cc1cccc(Cc2ncc3c(n2)n(C(=O)N2CCCC2)c(=O)n3C)c1` [Example 294, 7-Methyl-2-(3-methylbenzyl)-9-(pyrrolidin-1-ylcarbonyl)-7,9-dihydro-8H-purine-8-one]: the inhibition at 0.1 µM amounted to 93% and the IC50 was 37 nM.
For the compound `Cn1c(=O)n(C(=O)N2CCCC2)c2nc(Cc3ccc(F)cc3)ncc21` [Example 295, 2-(4-Fluorobenzyl)-7-methyl-9-(pyrrolidin-1-ylcarbonyl)-7,9-dihydro-8H-purine-8-one], the inhibition at 0.1 µM was 91% and the IC50 is 43 nM.
Regarding `Cn1c(=O)n(C(=O)N2CCCC2)c2nc(Cc3ccc(F)cc3F)ncc21` [Example 296, 2-(2,4-Difluorobenzyl)-7-methyl-9-(pyrrolidin-1-ylcarbonyl)-7,9-dihydro-8H-purine-8-one], the inhibition at 0.1 µM was 92% and the IC50 was 45 nM.
For `Cn1c(=O)n(C(=O)N2CCCC2)c2nc(Cc3cc(F)ccc3F)ncc21` [Example 297, 2-(2,5-Difluorobenzyl)-7-methyl-9-(pyrrolidin-1-ylcarbonyl)-7,9-dihydro-8H-purine-8-one], the inhibition at 0.1 µM turned out to be 89% and the IC50 is 47 nM.
`Cn1c(=O)n(C(=O)N2CCCC2)c2nc(Cc3c(F)cccc3F)ncc21` [Example 298, 2-(2,6-Difluorobenzyl)-7-methyl-9-(pyrrolidin-1-ylcarbonyl)-7,9-dihydro-8H-purine-8-one]: the inhibition at 0.1 µM stood at 98% and the half-inhibitory concentration (IC50) was 48 nM.
Turning to `Cn1c(=O)n(C(=O)N2CCCC2)c2nc(Cc3cc(F)cc(F)c3)ncc21` [Example 299, 2-(3,5-Difluorobenzyl)-7-methyl-9-(pyrrolidin-1-ylcarbonyl)-7,9-dihydro-8H-purine-8-one], the inhibition at 0.1 µM came to 100% and the IC50 came out at 37 nM.
For the compound `Cn1c(=O)n(C(=O)N2CCCC2)c2nc(Cc3ccccc3F)ncc21` [Example 300, 2-(2-Fluorobenzyl)-7-methyl-9-(pyrrolidin-1-ylcarbonyl)-7,9-dihydro-8H-purine-8-one], the inhibition at 0.1 µM came to 88% and the IC50 was 40 nM.
For `O=C(N1CCCC1)n1c(=O)[nH]c2nc(-c3ccccc3)ncc21` [Example 301, 2-phenyl-7-(pyrrolidin-1-ylcarbonyl)-7,9-dihydro-8H-purine-8-one], the inhibition at 0.1 µM was determined as 90% and the IC50 amounted to 23 nM.
